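All cell lines were grown in 96-well plates and treated with compound for 48 hours. GI50 marks 50% less growth.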 Calls of active or inactive are those of the source. Cut-off read from the data, not from the text of the source: active = GI50 up to about 1.1 µM and inactive = higher.
How the values were obtained:
Test in all cases: NCI-60 cell line screen, 48 h
786-0 = tested on: 786-0
OVCAR-3 = tested on: OVCAR-3
CCRF-CEM = tested on: CCRF-CEM
MOLT-4 = tested on: MOLT-4
HOP-92 = tested on: HOP-92
RPMI-8226 = tested on: RPMI-8226
SK-OV-3 = tested on: SK-OV-3
COLO 205 = tested on: COLO 205
MDA-MB-435 = tested on: MDA-MB-435
UACC-62 = tested on: UACC-62
NCI-H226 = tested on: NCI-H226
UO-31 = tested on: UO-31
SN12C = tested on: SN12C
HCC 2998 = tested on: HCC 2998
HOP-62 = tested on: HOP-62
SF-539 = tested on: SF-539
TK-10 = tested on: TK-10
MCF7 = tested on: MCF7
A549 = tested on: A549

Measured: GI50

COc1ccc(C2=Nn3c(nc4sc5c(c4c3=O)CCCC5)SC2)cc1
inactive: 786-0 > 100 µM | OVCAR-3 > 100 µM | CCRF-CEM > 100 µM | MOLT-4 > 100 µM | HOP-92 > 100 µM | RPMI-8226 > 100 µM | SK-OV-3 > 100 µM | COLO 205 > 100 µM | MDA-MB-435 > 100 µM | UACC-62 > 100 µM | NCI-H226 > 100 µM | UO-31 > 100 µM | SN12C > 100 µM | HCC 2998 > 100 µM | HOP-62 49.8 µM | SF-539 > 100 µM | TK-10 57.8 µM | MCF7 > 100 µM | A549 > 100 µM

CCOC(=O)/C=C(\C(=O)OCC)n1ccc(=O)n(Cc2cn(COCCOC(C)=O)nn2)c1=O
inactive: 786-0 15.7 µM | OVCAR-3 23.2 µM | CCRF-CEM 2.83 µM | MOLT-4 14.9 µM | HOP-92 19 µM | RPMI-8226 22.8 µM | SK-OV-3 > 100 µM | COLO 205 7.94 µM | MDA-MB-435 18.7 µM | UACC-62 18.8 µM | NCI-H226 7.67 µM | UO-31 17.7 µM | SN12C 20.7 µM | HCC 2998 16.6 µM | HOP-62 98.6 µM | SF-539 20.1 µM | TK-10 15.2 µM | MCF7 17.1 µM | A549 > 76.4 µM

CC(=O)c1nc(C#N)c(N)o1
inactive: 786-0 > 100 µM | OVCAR-3 > 100 µM | CCRF-CEM > 100 µM | MOLT-4 > 100 µM | HOP-92 > 100 µM | RPMI-8226 > 100 µM | SK-OV-3 > 100 µM | COLO 205 > 100 µM | MDA-MB-435 > 100 µM | UACC-62 > 100 µM | NCI-H226 > 100 µM | UO-31 > 100 µM | SN12C > 100 µM | HCC 2998 > 100 µM | HOP-62 > 100 µM | SF-539 > 100 µM | TK-10 > 100 µM | MCF7 > 100 µM | A549 > 100 µM

COC(=O)c1ccccc1/C=C1/Cc2cccc(C)c2C1=O
inactive: 786-0 36.2 µM | OVCAR-3 > 100 µM | CCRF-CEM > 100 µM | MOLT-4 > 100 µM | HOP-92 31.8 µM | RPMI-8226 > 100 µM | SK-OV-3 > 100 µM | COLO 205 > 100 µM | MDA-MB-435 > 100 µM | UACC-62 52.2 µM | NCI-H226 > 100 µM | UO-31 > 100 µM | SN12C > 100 µM | HCC 2998 > 100 µM | HOP-62 31 µM | SF-539 > 100 µM | TK-10 > 100 µM | MCF7 > 100 µM | A549 > 100 µM

O=c1ccc2[n+]([O-])c3ccc(O)cc3oc-2c1 [RESAZURIN]
inactive: 786-0 12.5 µM | OVCAR-3 13.2 µM | CCRF-CEM 30 µM | MOLT-4 13.7 µM | HOP-92 > 75.2 µM | RPMI-8226 6.01 µM | SK-OV-3 66.5 µM | COLO 205 12.9 µM | MDA-MB-435 1.89 µM | UACC-62 2.59 µM | NCI-H226 21.1 µM | UO-31 1.93 µM | SN12C 18.2 µM | HCC 2998 34.6 µM | HOP-62 18.7 µM | SF-539 15.9 µM | TK-10 36 µM | MCF7 4.95 µM | A549 4.31 µM

NC(=O)C1CCCN1C(=O)N(CCCl)N=O (stereo not given)
inactive: 786-0 > 100 µM | OVCAR-3 > 100 µM | CCRF-CEM > 100 µM | MOLT-4 > 100 µM | HOP-92 > 100 µM | RPMI-8226 > 100 µM | SK-OV-3 > 100 µM | COLO 205 > 100 µM | MDA-MB-435 > 100 µM | UACC-62 > 100 µM | NCI-H226 > 100 µM | UO-31 > 100 µM | SN12C > 100 µM | HCC 2998 > 100 µM | HOP-62 > 100 µM | SF-539 > 100 µM | TK-10 > 100 µM | MCF7 > 100 µM | A549 > 100 µM

CCC(=O)Nc1cccc(/N=C/c2ccc(OC(=O)/C=C\c3ccccc3)cc2)c1
inactive: 786-0 65.9 µM | OVCAR-3 43.7 µM | CCRF-CEM > 75 µM | MOLT-4 27 µM | HOP-92 35.2 µM | RPMI-8226 43.8 µM | SK-OV-3 > 75 µM | COLO 205 64.7 µM | MDA-MB-435 > 75 µM | UACC-62 30.8 µM | NCI-H226 33.6 µM | UO-31 51.2 µM | SN12C > 75 µM | HCC 2998 32.3 µM | HOP-62 > 75 µM | SF-539 14.8 µM | TK-10 > 75 µM | MCF7 25.2 µM | A549 54 µM

CCCCc1ccc(Nc2nc(OC)c3ncn(C4CC(O)C(CO)O4)c3n2)cc1 (stereo not given)
inactive: 786-0 16.4 µM | OVCAR-3 22.4 µM | CCRF-CEM 17.5 µM | MOLT-4 16.9 µM | HOP-92 1.97 µM | RPMI-8226 27.2 µM | SK-OV-3 13.2 µM | COLO 205 14.2 µM | MDA-MB-435 17.7 µM | UACC-62 17 µM | NCI-H226 19.4 µM | UO-31 19.2 µM | SN12C 13.3 µM | HCC 2998 6.44 µM | HOP-62 34 µM | SF-539 13.7 µM | TK-10 23.4 µM | MCF7 14.2 µM | A549 16.8 µM

C=C1C(=O)CC2C(=O)C(C)(O)CC/C=C(\C)C(=O)CC12 (stereo not given)
inactive: 786-0 16.1 µM | OVCAR-3 17 µM | CCRF-CEM 4.23 µM | MOLT-4 4.14 µM | HOP-92 23.6 µM | RPMI-8226 15 µM | SK-OV-3 > 100 µM | COLO 205 9.84 µM | MDA-MB-435 24.6 µM | UACC-62 30.3 µM | NCI-H226 6.07 µM | UO-31 6.7 µM | SN12C 15.2 µM | HCC 2998 > 100 µM | HOP-62 > 78.9 µM | SF-539 18.2 µM | TK-10 12.7 µM | MCF7 11.2 µM | A549 60.1 µM

COc1cccc(C2SCC(=O)N2c2ccc(-c3ccc(-n4c(-c5ccccc5)nc5ccccc5c4=O)cc3)cc2)c1OC (stereo not given)
inactive: 786-0 > 100 µM | OVCAR-3 > 100 µM | CCRF-CEM 67.1 µM | MOLT-4 60.8 µM | HOP-92 55.8 µM | RPMI-8226 > 100 µM | SK-OV-3 > 10 µM | COLO 205 > 100 µM | MDA-MB-435 53.5 µM | UACC-62 29 µM | NCI-H226 74.1 µM | UO-31 32.8 µM | SN12C > 100 µM | HCC 2998 > 100 µM | HOP-62 > 100 µM | SF-539 32.6 µM | TK-10 > 100 µM | MCF7 25.2 µM | A549 83.8 µM
